Reference: paper PMC11537199 (RSC Advances, 2024)
Where “and” joins values, the source holds several entries; their conditions need not be identical. Identical values can stand only once. Like-named read-outs stand apart in the source and are kept apart here.

Tests used:
EqCoV M^pro = type: biochemical, equine coronavirus (EqCoV); details: pH 7.6
PEDV M^pro = type: biochemical, porcine epidemic diarrhea virus (PEDV); details: for K M / Km / vmax: pH 7.6
NV M^pro = NV M^pro (Norovirus, UniProt Q83883); type: biochemical; details: 500 nM enzyme, substrate 6-850 μM; for catalytic efficiency (kcat/KM): Table 8
Sequence of NV M^pro (Q83883 1101-1281 limits assumed): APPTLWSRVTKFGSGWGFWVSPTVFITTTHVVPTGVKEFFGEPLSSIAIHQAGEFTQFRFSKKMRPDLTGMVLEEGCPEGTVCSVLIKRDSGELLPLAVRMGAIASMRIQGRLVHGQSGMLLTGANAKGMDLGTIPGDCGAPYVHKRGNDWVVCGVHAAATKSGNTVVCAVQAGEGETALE

EV71 M^pro = EV71 M^pro (Human enterovirus 71, UniProt Q66478); type: biochemical, enterovirus A71 (EV71); details: 500 nM enzyme, substrate 6-850 μM; for catalytic efficiency (kcat/KM): Table 8
Sequence of EV71 M^pro (Q66478 1549-1731 limits assumed): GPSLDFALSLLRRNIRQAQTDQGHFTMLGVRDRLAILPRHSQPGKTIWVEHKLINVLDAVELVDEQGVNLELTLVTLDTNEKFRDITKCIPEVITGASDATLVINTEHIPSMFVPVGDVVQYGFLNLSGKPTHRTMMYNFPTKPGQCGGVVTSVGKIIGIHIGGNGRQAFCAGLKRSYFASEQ

Polio M^pro = Polio M^pro (Poliovirus type 1, UniProt P03300); details: pH 7.6
Sequence of Polio M^pro (P03300 1566-1748 limits assumed): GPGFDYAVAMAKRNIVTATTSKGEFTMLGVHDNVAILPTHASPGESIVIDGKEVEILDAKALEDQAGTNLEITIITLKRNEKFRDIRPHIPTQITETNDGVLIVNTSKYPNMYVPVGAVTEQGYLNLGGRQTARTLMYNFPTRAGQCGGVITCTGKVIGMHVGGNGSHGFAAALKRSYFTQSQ

SARS-CoV-2 M^pro [1] = target: T1, SARS-CoV-2 M^pro (Severe acute respiratory syndrome coronavirus 2, UniProt P0DTD1); details: pH 7.6
FIPV M^pro = FIPV M^pro (Feline coronavirus, UniProt Q98VG9); type: biochemical, feline infectious peritonitis virus (FIPV); details: pH 7.6
Sequence of FIPV M^pro (Q98VG9 2904-3205 limits assumed): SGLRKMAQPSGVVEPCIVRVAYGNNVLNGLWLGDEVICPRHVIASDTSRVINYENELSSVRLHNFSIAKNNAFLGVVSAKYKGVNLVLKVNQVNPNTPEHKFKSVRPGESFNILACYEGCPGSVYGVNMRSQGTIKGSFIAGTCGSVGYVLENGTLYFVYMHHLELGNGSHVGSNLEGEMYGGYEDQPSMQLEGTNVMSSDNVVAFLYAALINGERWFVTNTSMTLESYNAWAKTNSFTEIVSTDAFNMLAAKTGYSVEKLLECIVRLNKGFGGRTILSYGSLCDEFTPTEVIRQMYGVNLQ

[2] = system: coronavirus M^pros (SARS-CoV-2, FIPV, PEDV, EqCoV); type: biochemical
SARS-CoV-2 M^pro [3] = target: T1, SARS-CoV-2 M^pro
HRV M^pro = HRV M^pro (Human rhinovirus 14, UniProt P03303); type: biochemical; details: 500 nM enzyme, substrate 6-850 μM; for vmax: Fig. S29 Michaelis-Menten fit; for vmax / catalytic efficiency (kcat/KM): Bis-Tris pH 7.6, 37 °C; for Km: Table 7, 20 mM Bis-Tris pH 7.6, 1 mM DTT, 0.02% Tween-20, 37 °C, read 60 min; for catalytic efficiency (kcat/KM): Table 8
Sequence of HRV M^pro (P03303 1538-1719 limits assumed): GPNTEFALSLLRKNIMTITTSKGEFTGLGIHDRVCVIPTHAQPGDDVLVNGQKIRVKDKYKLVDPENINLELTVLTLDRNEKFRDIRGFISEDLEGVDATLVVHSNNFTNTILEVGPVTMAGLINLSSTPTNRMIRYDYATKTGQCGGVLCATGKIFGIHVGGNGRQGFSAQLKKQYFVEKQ

[4] = system: picornavirus and norovirus M^pros (PV, HRV, EV71, NV); type: biochemical, poliovirus, human rhinovirus, enterovirus A71; details: cross-test against PV, EV71 and NV M^pro, 500 nM enzyme, Bis-Tris pH 7.6, 37 °C
[5] = system: coronaviral M^pros (SARS-CoV-2, FIPV, PEDV, EqCoV); type: biochemical
[6] = Fig. S32 Michaelis-Menten fit, Bis-Tris pH 7.6, 37 °C
[7] = Table 7, 20 mM Bis-Tris pH 7.6, 1 mM DTT, 0.02% Tween-20, 37 °C, read 60 min
[8] = Fig. S31 Michaelis-Menten fit, Bis-Tris pH 7.6, 37 °C

Compound: 2-Abz-YNSTLQ↓SGY^(NO2)R [PEDV 1]
- vmax (EqCoV M^pro): 0.4075 µM/s
- k cat (PEDV M^pro): 3.3 ± 0.3 s⁻¹
- K M (PEDV M^pro): 192 ± 26 µM
- Km (PEDV M^pro): 192 ± 26 µM
- vmax (PEDV M^pro): 0.330 ± 0.02 µM/s

Compound: 2-Abz-EFQLQ↓GKMYDY^(NO2)R [NVFRET]
- vmax (NV M^pro; [6]): 0.4163 ± 0.08 µM/s
- Km (NV M^pro; [7]): 613 ± 188 µM
- catalytic efficiency (kcat/KM) (NV M^pro; Bis-Tris pH 7.6, 37 °C): 1300 ± 167 M⁻¹ s⁻¹
- Km (EV71 M^pro; [8]): 1100 µM
- vmax (EV71 M^pro; [8]): 1.914 ± 0.29 µM/s
- Km (EV71 M^pro; [7]): 1100 ± 201 µM
- catalytic efficiency (kcat/KM) (EV71 M^pro; Bis-Tris pH 7.6, 37 °C): 3400 ± 455 M⁻¹ s⁻¹
- vmax (Polio M^pro): 4.136 ± 1.36 µM/s

Compound: 2-Abz-VVTLQ↓SGY^(NO2)R [Blanchard-VV]
- Km (EqCoV M^pro): 371 ± 70 µM
- Km (PEDV M^pro): 85 ± 10 µM
- vmax (PEDV M^pro): 0.360 ± 0.04 µM/s
- Km (SARS-CoV-2 M^pro [1]): 64 ± 10 µM
- vmax (SARS-CoV-2 M^pro [1]): 0.2927 ± 0.02 µM/s
- Km (FIPV M^pro): 85 ± 15 µM
- vmax (FIPV M^pro): 0.3231 ± 0.04 µM/s

Compound: 2-Abz-STLAAGY^(NO2)R [(−) FRET]
- recognition of substrate by coronavirus M^pros [2]: None of the investigated M^pros recognize
- cleavage by SARS-CoV-2 M^pro (LCMS analysis of cleavage products) (SARS-CoV-2 M^pro [3]): no cleavage

Compound: 2-Abz-ETLFQ↓GPVY^(NO2)R [HRFRET]
- vmax (HRV M^pro): 0.5348 ± 0.08 µM/s
- Km (HRV M^pro): 340 ± 49 µM
- catalytic efficiency (kcat/KM) (HRV M^pro): 3000 ± 285 M⁻¹ s⁻¹
- recognition of substrate by picornaviral and noroviral main proteases [4]: only specific to rhinovirus M^pro

Compound: 2-Abz-DFHLQ↓GPY^(NO2)R [NPFRET, shorter, truncated consensus substrate proposed in the literature, reference compound]
- recognition of substrate by picornaviral and noroviral main proteases [4]: lack of binding

Compound: 2-Abz-EALFQ↓GPPKY^(NO2)R [EV71FRET]
- Km (NV M^pro; [6]): 622 µM
- vmax (NV M^pro; [6]): 1.410 ± 0.16 µM/s
- Km (NV M^pro; [7]): 620 ± 153 µM
- catalytic efficiency (kcat/KM) (NV M^pro; Bis-Tris pH 7.6, 37 °C): 4500 ± 515 M⁻¹ s⁻¹
- vmax (HRV M^pro): 0.7709 ± 0.08 µM/s
- Km (HRV M^pro): 480 ± 80 µM
- catalytic efficiency (kcat/KM) (HRV M^pro): 3200 ± 405 M⁻¹ s⁻¹
- Km (EV71 M^pro; [8]): 1640 µM
- vmax (EV71 M^pro; [8]): 1.029 ± 0.13 µM/s
- Km (EV71 M^pro; [7]): 1640 ± 261 µM
- catalytic efficiency (kcat/KM) (EV71 M^pro; Bis-Tris pH 7.6, 37 °C): 1300 ± 138 M⁻¹ s⁻¹
- recognition of substrate by picornaviral and noroviral main proteases [4]: somewhat more promiscuous
- Km (Polio M^pro): 1140 µM and 1110 µM
- catalytic efficiency (kcat/KM) (Polio M^pro): 2700 ± 315 M⁻¹ s⁻¹
- vmax (Polio M^pro): 1.366 ± 0.30 µM/s

Compound: C[S+](C)[O-] [DMSO, dimethyl sulfoxide]
- decrease of enzyme activity [5]: 42–60%

Compound: 2-Abz-NSTLQ↓SGY^(NO2)R [PEDV 2, truncated version of the PEDV FRET substrate]
- vmax (EqCoV M^pro): 0.4516 µM/s
- k cat (PEDV M^pro): 2.6 ± 0.2 s⁻¹
- K M (PEDV M^pro): 63 ± 11 µM
- Km (PEDV M^pro): 63 ± 11 µM
- vmax (PEDV M^pro): 0.266 ± 0.02 µM/s

Compound: Tween-20
- effect on catalytic activity [5]: do not significantly reduce catalytic activity
